Source: ChEMBL document CHEMBL1201862, “PubChem BioAssay data set” (2004)
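Compound exposure: 48 hours, 5 concentrations, 96-well plates. GI50 is the concentration that inhibits growth by half.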 Active and inactive are the calls of the source. Cut-off read from the data, not from the text of the source: active = GI50 up to about 1.1 µM and inactive = higher.

Assays:
Test in all cases: NCI anticancer screen, dose series, 48 h
SK-MEL-5 = tested on: SK-MEL-5
MOLT-4 = tested on: MOLT-4
ACHN = tested on: ACHN
786-0 = tested on: 786-0
NCI-H522 = tested on: NCI-H522
MDA-N = tested on: MDA-N
SF-268 = tested on: SF-268
A498 = tested on: A498
RXF 393 = tested on: RXF 393
SN12C = tested on: SN12C
EKVX = tested on: EKVX
NCI-H226 = tested on: NCI-H226
SR = tested on: SR
SK-OV-3 = tested on: SK-OV-3
K562 = tested on: K562
SNB-75 = tested on: SNB-75
M14 = tested on: M14
SW-620 = tested on: SW-620
HOP-62 = tested on: HOP-62

Measured: GI50

S=c1[nH]c(=S)c2cc(Sc3ccc4[nH]c(=S)[nH]c(=S)c4c3)ccc2[nH]1
inactive: SK-MEL-5 46.9 µM | MOLT-4 46.8 µM | ACHN 35.2 µM | 786-0 21.5 µM | NCI-H522 34.8 µM | MDA-N 40.9 µM | SF-268 24.2 µM | A498 24.5 µM | RXF 393 23.7 µM | SN12C 40 µM | EKVX 42.2 µM | NCI-H226 20.4 µM | SR 17.1 µM | SK-OV-3 24.3 µM | K562 49.1 µM | SNB-75 19.5 µM | M14 66.7 µM | SW-620 48.4 µM

O=C(O)CCC/N=C(\C(=N\CCCC(=O)O)c1ccccc1)c1ccccc1
inactive: MOLT-4 > 100 µM | ACHN > 100 µM | 786-0 > 100 µM | MDA-N > 100 µM | SF-268 > 100 µM | A498 > 100 µM | HOP-62 > 100 µM | RXF 393 > 100 µM | SN12C > 100 µM | EKVX > 100 µM | NCI-H226 > 100 µM | SR > 100 µM | SK-OV-3 > 100 µM | K562 > 100 µM | SNB-75 > 100 µM | M14 > 100 µM | SW-620 > 100 µM

O=C(N/N=C/C=C/c1ccccc1)c1ccccc1Nc1ccccc1C(=O)N/N=C/C=C/c1ccccc1
inactive: SK-MEL-5 > 100 µM | MOLT-4 1.92 µM | ACHN > 100 µM | 786-0 > 100 µM | MDA-N > 100 µM | SF-268 34.4 µM | A498 > 100 µM | HOP-62 3.58 µM | RXF 393 20.5 µM | SN12C > 100 µM | EKVX > 100 µM | NCI-H226 > 100 µM | SR 12.8 µM | SK-OV-3 > 100 µM | K562 > 100 µM | SNB-75 21.4 µM | M14 48 µM | SW-620 > 100 µM

C(=C\c1ccccc1)/C=N/c1ccc2c(c1)Cc1ccccc1-2
inactive: SK-MEL-5 98.9 µM | MOLT-4 31 µM | ACHN > 100 µM | 786-0 54.2 µM | NCI-H522 36.8 µM | MDA-N 44 µM | SF-268 38.9 µM | A498 > 100 µM | HOP-62 > 100 µM | RXF 393 > 100 µM | SN12C 41.1 µM | EKVX 49.1 µM | NCI-H226 > 100 µM | SR 24 µM | K562 34.2 µM | SNB-75 38.6 µM | M14 62.2 µM | SW-620 69 µM

Cc1cn([C@@H]2C[C@H]2CO)c(=O)[nH]c1=O
inactive: SK-MEL-5 > 100 µM | MOLT-4 > 100 µM | ACHN > 100 µM | 786-0 > 100 µM | NCI-H522 > 100 µM | MDA-N > 100 µM | SF-268 > 100 µM | A498 > 100 µM | HOP-62 > 100 µM | RXF 393 > 100 µM | SN12C > 100 µM | EKVX > 100 µM | NCI-H226 > 100 µM | SR > 100 µM | K562 > 100 µM | SNB-75 > 100 µM | M14 > 100 µM | SW-620 > 100 µM

CC(=O)O[C@@H]1[C@H]2[C@@H](OC(=O)c3ccccc3)[C@@H](C)C[C@]2(O)[C@H](OC(C)=O)[C@@]2(C)[C@@H]3CC(C)(C)C(=O)[C@]3(OC(C)=O)C[C@@]12C
inactive: SK-MEL-5 18.7 µM | MOLT-4 2.09 µM | ACHN > 25 µM | 786-0 17.1 µM | NCI-H522 > 25 µM | MDA-N 8.91 µM | SF-268 > 25 µM | A498 12.8 µM | HOP-62 10.9 µM | RXF 393 > 25 µM | SN12C > 25 µM | EKVX > 25 µM | NCI-H226 > 25 µM | SR 20.7 µM | SK-OV-3 > 25 µM | SNB-75 1.95 µM | M14 20.8 µM | SW-620 24.3 µM

CN(C)CCOc1ccc2[nH]c(C(=O)N3CC(CCl)c4c3cc([N+](=O)[O-])c3ccccc43)cc2c1 (stereo not drawn)
inactive: SK-MEL-5 1.7 µM | MOLT-4 1.29 µM | ACHN 1.95 µM | 786-0 2.1 µM | MDA-N 3.68 µM | SF-268 1.71 µM | A498 2.94 µM | HOP-62 1.88 µM | RXF 393 1.55 µM | EKVX 3.13 µM | NCI-H226 54.1 µM | SR 1.72 µM | SK-OV-3 27.3 µM | K562 1.79 µM | SNB-75 1.85 µM | M14 2.07 µM | SW-620 2.17 µM

CN(CC(=O)O)Cc1c(O)c(Cl)cc(Cl)c1Cl
inactive: SK-MEL-5 24.7 µM | ACHN 36.5 µM | 786-0 15.8 µM | NCI-H522 27.8 µM | MDA-N 47.2 µM | SF-268 21.4 µM | A498 46.1 µM | HOP-62 29 µM | RXF 393 76.4 µM | SN12C 47 µM | EKVX 24.2 µM | NCI-H226 22.8 µM | SR 5.55 µM | SK-OV-3 > 100 µM | SNB-75 92.5 µM | M14 22.2 µM | SW-620 40.5 µM

COc1ccc2oc(=N)c(C(N)=O)cc2c1
inactive: SK-MEL-5 60.4 µM | MOLT-4 65.9 µM | ACHN 30.3 µM | 786-0 53.5 µM | MDA-N 57.1 µM | SF-268 44.3 µM | A498 44.2 µM | HOP-62 55.2 µM | RXF 393 > 100 µM | SN12C 74.5 µM | NCI-H226 46.1 µM | SR 38.5 µM | SK-OV-3 > 100 µM | K562 > 100 µM | SNB-75 30.1 µM | M14 87.3 µM | SW-620 94.8 µM

O=c1n(-c2ccccc2)c(=O)n2c(-c3ccccc3)c(-c3ccccc3)n12
inactive: SK-MEL-5 > 100 µM | MOLT-4 37.4 µM | ACHN > 100 µM | 786-0 80.2 µM | MDA-N > 100 µM | A498 > 100 µM | HOP-62 > 100 µM | RXF 393 15.9 µM | SN12C > 100 µM | EKVX > 100 µM | NCI-H226 > 100 µM | SR 27 µM | SK-OV-3 > 100 µM | K562 80.9 µM | SNB-75 76.9 µM | M14 52.1 µM | SW-620 > 100 µM

Clc1ccc(Cl)c(NNc2cc(Cl)ccc2Cl)c1
inactive: SK-MEL-5 2.76 µM | MOLT-4 > 10 µM | ACHN 2.84 µM | 786-0 > 10 µM | NCI-H522 3.68 µM | MDA-N 5.57 µM | SF-268 4.69 µM | A498 > 10 µM | HOP-62 > 10 µM | RXF 393 6.22 µM | SN12C 4.07 µM | EKVX 4.45 µM | NCI-H226 > 10 µM | SR 8.81 µM | SK-OV-3 5.79 µM | K562 > 10 µM | M14 > 10 µM | SW-620 > 10 µM
